Source: patent US9695155B2, “Herbicidal substituted pyrimidinyloxy benzene compounds” (E. I. DU PONT DE NEMOURS AND COMPANY, priority 2013, dated 2017)

How the values were obtained:
morningglory = experiment: Test C preemergence; assay type: in vivo, Ipomoea coccinea; details: Ipomoea, pre-emergence, preemergence, read-out: Morningglory plant response rating
Summary of the method: (§1)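 Plants were kept under greenhouse conditions for 13–15 days following spray. Pre-emergent application went to soil (loam–sand), post-emergent to foliage at 1–4 leaves. Evaluation: visual, percent control against untreated checks.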

oilseed rape = experiment: Test C preemergence; assay type: in vivo, Brassica napus; details: Brassica napus, pre-emergence, preemergence, read-out: Oilseed Rape plant response rating
Summary of the method: as §1

large (Lg) crabgrass = experiment: Test C preemergence; assay type: in vivo, Digitaria sanguinalis; details: Digitaria sanguinalis, pre-emergence
Summary of the method: as §1

barnyardgrass = experiment: Test C preemergence; assay type: in vivo, Echinochloa crus-galli; details: Echinochloa crus-galli, pre-emergence
Summary of the method: as §1

pigweed = experiment: Test C preemergence; assay type: in vivo, Amaranthus retroflexus; details: Amaranthus retroflexus, pre-emergence, preemergence, read-out: Pigweed plant response rating
Summary of the method: as §1

ragweed [1] = experiment: Test A postemergence; assay type: in vivo, Ambrosia elatior
Summary of the method: (§2)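 Compounds in non-phytotoxic solvent with surfactant applied as soil spray preemergence, or postemergence to plants 2-10 cm at one- to two-leaf stage, in loam/sand. After approximately 10 days in greenhouse, injury rated visually versus untreated controls, 0 (no effect) to 100 (complete control).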

blackgrass = experiment: Test C preemergence; assay type: in vivo, Alopecurus myosuroides; details: Alopecurus myosuroides, pre-emergence
Summary of the method: as §1

velvetleaf = experiment: Test C preemergence; assay type: in vivo, Abutilon theophrasti; details: Abutilon theophrasti, pre-emergence, preemergence, read-out: Velvetleaf plant response rating
Summary of the method: as §1

corn = experiment: Test C preemergence; assay type: in vivo, Zea mays; details: Zea mays, pre-emergence
Summary of the method: as §1

ragweed [2] = experiment: Test A preemergence; assay type: in vivo, Ambrosia elatior; details: 0 to 100 scale where 0 is no effect and 100 is complete control
Summary of the method: as §2

giant foxtail = experiment: Test C preemergence; assay type: in vivo, Setaria faberii; details: Setaria faberi, pre-emergence
Summary of the method: as §1

ragweed [3] = experiment: Test C preemergence; assay type: in vivo, Ambrosia elatior; details: Ambrosia artemisiifolia, pre-emergence, preemergence, read-out: Ragweed plant response rating
Summary of the method: as §1

galium = experiment: Test A postemergence; assay type: in vivo, Galium aparine
Summary of the method: as §2

yellow nutsedge = experiment: Test C preemergence; assay type: in vivo, Cyperus esculentus; details: Cyperus, pre-emergence, preemergence, scale 0 (no effect) to 100 (complete control), read-out: Nutsedge, Yellow plant response rating
Summary of the method: as §1

Italian ryegrass [4] = experiment: Test A postemergence; assay type: in vivo, Lolium multiflorum
Summary of the method: as §2

soybean = experiment: Test C preemergence; assay type: in vivo, Glycine max; details: Glycine max, pre-emergence, preemergence, read-out: Soybean plant response rating
Summary of the method: as §1

Italian ryegrass [5] = experiment: Test C preemergence; assay type: in vivo, Lolium multiflorum; details: Lolium multiflorum, pre-emergence, preemergence, read-out: Ryegrass, Italian plant response rating
Summary of the method: as §1

lambsquarters = experiment: Test C preemergence; assay type: in vivo, Chenopodium album; details: Chenopodium album, pre-emergence, preemergence, read-out: Lambsquarters plant response rating
Summary of the method: as §1

[6] = 16 g ai/ha, scale 0 to 100 (0 no effect, 100 complete control)
[7] = 62 g ai/ha, scale 0 (no effect) to 100 (complete control)
[8] = 125 g ai/ha, scale 0 (no effect) to 100 (complete control)
[9] = 31 g ai/ha, 0 to 100 scale, 0 no effect, 100 complete control
[10] = 125 g ai/ha, 0 to 100 scale where 0 is no effect and 100 is complete control

Q: What does the source list for `Fc1cccc(Oc2ncc(Cl)cn2)c1-n1cc(C(F)F)nn1` [Compound 141, 5-chloro-2-[2-[4-(difluoromethyl)-1H-1,2,3-triazol-1-yl]-3-fluorophenoxy]pyrimidine]?
A: pest or weed control at 16 g/ha (morningglory; [6]): 75%; pest or weed control at 62 g/ha (morningglory; [7]): 100%; pest or weed control at 125 g/ha (morningglory; [8]): 100%; plant injury at 16 g/ha (oilseed rape; [6]): 100%; plant injury at 62 g/ha (oilseed rape; [7]): 100%; plant injury at 125 g/ha (oilseed rape; [8]): 100%; pest or weed control at 16 g/ha (large (Lg) crabgrass; 16 g ai/ha, preemergence, scale 0 to 100 (0 no effect, 100 complete control), read-out: Crabgrass, Large plant response rating): 100%; pest or weed control at 62 g/ha (large (Lg) crabgrass; 62 g ai/ha, preemergence, scale 0 (no effect) to 100 (complete control), read-out: Crabgrass, Large plant response rating): 100%; pest or weed control at 125 g/ha (large (Lg) crabgrass; 125 g ai/ha, preemergence, scale 0 (no effect) to 100 (complete control), read-out: Crabgrass, Large plant response rating): 100%; pest or weed control at 31 g/ha (large (Lg) crabgrass; Preemergence, 31 g ai/ha, scale 0 to 100, 0 no effect, 100 complete control, read-out: Plant response rating, Crabgrass, Large): 100%; pest or weed control at 16 g/ha (barnyardgrass; 16 g ai/ha, preemergence, scale 0 to 100 (0 no effect, 100 complete control), read-out: Barnyardgrass plant response rating): 80%; pest or weed control at 62 g/ha (barnyardgrass; 62 g ai/ha, preemergence, scale 0 (no effect) to 100 (complete control), read-out: Barnyardgrass plant response rating): 100%; pest or weed control at 125 g/ha (barnyardgrass; 125 g ai/ha, preemergence, scale 0 (no effect) to 100 (complete control), read-out: Barnyardgrass plant response rating): 100%; pest or weed control at 31 g/ha (barnyardgrass; Preemergence, 31 g ai/ha, scale 0 to 100, 0 no effect, 100 complete control, read-out: Plant response rating, Barnyardgrass): 100%; pest or weed control at 16 g/ha (pigweed; [6]): 100%; pest or weed control at 62 g/ha (pigweed; [7]): 100%; pest or weed control at 125 g/ha (pigweed; [8]): 100%; Plant response rating, Ragweed (ragweed [1]; [9]): 80; Ragweed plant response rating (ragweed [1]; [10]): 100; pest or weed control at 16 g/ha (blackgrass; 16 g ai/ha, preemergence, scale 0 to 100 (0 no effect, 100 complete control), read-out: Blackgrass plant response rating): 80%; pest or weed control at 62 g/ha (blackgrass; 62 g ai/ha, preemergence, scale 0 (no effect) to 100 (complete control), read-out: Blackgrass plant response rating): 95%; pest or weed control at 125 g/ha (blackgrass; 125 g ai/ha, preemergence, scale 0 (no effect) to 100 (complete control), read-out: Blackgrass plant response rating): 95%; pest or weed control at 31 g/ha (blackgrass; Preemergence, 31 g ai/ha, scale 0 to 100, 0 no effect, 100 complete control, read-out: Plant response rating, Blackgrass): 95%; pest or weed control at 16 g/ha (velvetleaf; [6]): 100%; pest or weed control at 62 g/ha (velvetleaf; [7]): 100%; pest or weed control at 125 g/ha (velvetleaf; [8]): 100%; plant injury at 16 g/ha (corn; 16 g ai/ha, preemergence, scale 0 to 100 (0 no effect, 100 complete control), read-out: Corn plant response rating): 5%; plant injury at 62 g/ha (corn; 62 g ai/ha, preemergence, scale 0 (no effect) to 100 (complete control), read-out: Corn plant response rating): 80%; plant injury at 125 g/ha (corn; 125 g ai/ha, preemergence, scale 0 (no effect) to 100 (complete control), read-out: Corn plant response rating): 90%; Corn plant response rating (crop injury, 0 = no effect, 100 = complete kill) at 31 g/ha (corn; Preemergence, 31 g ai/ha, scale 0 to 100, 0 no effect, 100 complete control): 20%; Plant response rating, Ragweed (ragweed [2]; 31 g ai/ha, visual, approximately 10 days): 90; Plant response rating, Ragweed (ragweed [2]; 125 g ai/ha): 100; pest or weed control at 16 g/ha (giant foxtail; 16 g ai/ha, preemergence, scale 0 to 100 (0 no effect, 100 complete control), read-out: Foxtail, Giant plant response rating): 90%; pest or weed control at 62 g/ha (giant foxtail; 62 g ai/ha, preemergence, scale 0 (no effect) to 100 (complete control), read-out: Foxtail, Giant plant response rating): 100%; pest or weed control at 125 g/ha (giant foxtail; 125 g ai/ha, preemergence, scale 0 (no effect) to 100 (complete control), read-out: Foxtail, Giant plant response rating): 100%; pest or weed control at 31 g/ha (giant foxtail; Preemergence, 31 g ai/ha, scale 0 to 100, 0 no effect, 100 complete control, read-out: Plant response rating, Foxtail, Giant): 100%; pest or weed control at 16 g/ha (ragweed [3]; [6]): 85%; pest or weed control at 62 g/ha (ragweed [3]; [7]): 100%; pest or weed control at 125 g/ha (ragweed [3]; [8]): 100%; Plant response rating, Galium (galium; [9]): 100; Galium plant response rating (galium; [10]): 100; pest or weed control at 62 g/ha (yellow nutsedge; 62 g ai/ha): 70%; pest or weed control at 125 g/ha (yellow nutsedge; 125 g ai/ha): 95%; Plant response rating, Ryegrass, Italian (Italian ryegrass [4]; [9]): 60; Ryegrass, Italian plant response rating (Italian ryegrass [4]; [10]): 80; plant injury at 16 g/ha (soybean; [6]): 65%; plant injury at 62 g/ha (soybean; [7]): 90%; plant injury at 125 g/ha (soybean; [8]): 98%; pest or weed control at 16 g/ha (Italian ryegrass [5]; [6]): 40%; pest or weed control at 62 g/ha (Italian ryegrass [5]; [7]): 75%; pest or weed control at 125 g/ha (Italian ryegrass [5]; [8]): 100%; pest or weed control at 16 g/ha (lambsquarters; [6]): 85%; pest or weed control at 62 g/ha (lambsquarters; [7]): 100%; pest or weed control at 125 g/ha (lambsquarters; [8]): 100%
